# Test system: C57BL/6 mice
# Experiment: Delayed-type hypersensitivity (DTH) ear swelling response after Influvac vaccination in diet-supplemented mice
# Assay type: in vivo, mouse
# Method: The effect of diets comprising 2′-FL and/or betagalacto-oligosaccharides was tested in a mouse model wherein a response to an antigen is measured by a delayed-type hypersensitivity (DTH) response. This DTH response in the ears after local challenge with an antigen present in a vaccine is a measure of Th1 cell proliferation. During response to infection and/or vaccination Th1 cells proliferate in response to the challenge with the antigen. These Th1 cells infiltrate the ear when the ear is subsequently challenged with the antigen and cause swelling. Infiltration with the Th1 cells in the ear takes about 24 h and the swelling is therefore delayed. The more Th1 cells proliferated during initial vaccination and/or infection, the more DTH upon challenging with the antigen is observed.
# 6-8 Weeks old female C57BL/6 mice (Charles River) received semi-purified AIN-93G-based diets (Research Diet Service, Wijk bij Duurstede, the Netherlands), comprising
# 1) 1 wt % betagalacto-oligosaccharide (GOS, source Vivinal GOS, Borculo Domo), fructo-oligosaccharide (FOS, Source RaftilineHP, Orafti) and galacturonic acid oligosaccharide (source AOS) in a 9:1:1.1 ratio. AOS were produced from pectin (Südzucker AG, Mannheim, Germany), with a DP of 1-20. It consists of approximately 75% galacturonic acid oligomers, based on total weight,
# 2) 1 wt % 2′fucosyllactose (2′-FL),
# 3) 1 wt % betagalacto-oligosaccharides, fructo-oligosaccharides and galacturonic acid oligosaccharide (AOS) in a 9:1:1.1 ratio and 1 wt % 2′-FL.
# 4) 0.5 wt % betagalacto-oligosaccharides, fructo-oligosaccharides and galacturonic acid oligosaccharide (AOS) in a 9:1:1.1 ratio and 0.5 wt % 2′-FL.
# All groups were compared to the unsupplemented control diet (control and sham control group). Dietary supplementation started 14 days before the first vaccination and lasted until the end of the experiment, 31 days after the first vaccination.
# Vaccination experiments were performed using Influvac (Solvay Pharmaceuticals, Weesp, the Netherlands) from season 2005/2006. The mice received a primary vaccination and a booster vaccination, consisting of a subcutaneous (sc) injection of a 1:1 mix of vaccine and adjuvant in a total volume of 100 μl. The booster vaccination was given at 21 days after the primary vaccination. The experiments ended 10 days after booster vaccination. Negative control groups that were included received injections with a 1:1 mix of PBS and adjuvant in a total volume of 100 μl (sham control). Ear thickness was measured in duplicate before vaccine challenge and 24 h thereafter, using a digital micrometer (Mitutoyo Digimatic 293561, Veenendaal, the Netherlands). The DTH response was calculated by subtracting the basal ear thickness from the value at 24 h after challenge.
substance,measurement,setting,value
2′-fucosyllactose [1% 2′-FL],increase of DTH response,compared with control diet,71%
same,effect on ear swelling / DTH response (in words),compared with control-fed animals,increased ear swelling
same,Δ DTH,ear swelling DTH minus sham control,80.4 μm
same,Relative DTH,Δ DTH relative to control diet (=1),1.71
